# Source: a melting point compilation (Tetko et al.; mined from patent text by program, amines drawn as free bases though some values may be those of a salt)
row,SMILES,melting point [°C]
1,CCn1c(=O)c2c(nc(C=Cc3cc(OC)ccc3S(N)(=O)=O)n2C)n(CC)c1=O,236 to 237
2,CN(C)c1cc(OC(F)(F)F)cc2sc(N)nc12,184
3,C=CCNc1cc(C)nc2c(C)n[nH]c12,196 to 198
4,CCCCCC(=O)n1nc(-c2cc(C(C)(C)C)c(O)c(C(C)(C)C)c2)c2cccnc21,112 to 114
5,O=C(Nc1cccc(Cl)c1)C1C(=O)Sc2ccc(Cl)cc21 (centres undefined),160 to 163
6,CCN1C[C@@H](C(=O)O)N(C(=O)[C@H](C)CSC(=O)c2ccccc2)C1=O,139 to 141
7,CCOC(=O)C1=C(C)Nc2nc(N3CCOCC3)nc(N3CCOCC3)c2C1c1ccccc1OC (centres undefined),188
8,O=C(N[C@@H]1CN(C2CCCCC2)C[C@H]1O)c1ccccc1 (relative stereo),154 to 156
9,CNC(=C[N+](=O)[O-])NCCSCc1csc(CN2CCCC2)n1,119 to 120
10,O=C1c2ccccc2C(=O)N1CCSCc1ccc(C2OCCO2)o1,83 to 85
11,COc1ncc(Cl)cc1Br,45 to 47.5
12,CCN1C(=O)C(C)(C)C(=O)N(C)c2cc(CN(CCn3cc(C)c4occc4c3=O)Cc3scnc3C)ccc21,134 to 136
13,COC(=O)C(c1ccccc1CCl)C(OC)OC (centres undefined),63.5 to 64.5
14,C#Cc1ccc(I)c(Oc2cnc(N)nc2N)c1,156 to 159
15,Cc1cccc(C)c1N(C)C(=O)Cl,79 to 80
16,CCC(OC(C)=O)c1ccc(Cl)c2nc3n(c12)CCCN3c1ccc(N(C)C)nc1C (centres undefined),165 to 166
17,CCOC(=O)C1N=C(c2ccccc2)c2ccccc2NC1=O (centres undefined),226
18,Cc1ccccc1C(O)C1CCN(C)CC1 (centres undefined),119 to 123
19,CCC(CC)(CC)n1ncc(C(=O)NC)c1C#N,85 to 87
20,CNS(=O)(=O)c1ccc(NN=C2C(=O)Nc3ccc(C(N)=O)cc32)cc1,> 250

row,SMILES,melting point [°C]
1,CSc1ccc(NC(=O)N(O)C2CCCCC2)cc1,151 to 153
2,Cc1nccn1-c1ccc([N+](=O)[O-])cc1,135 to 137
3,Cc1ccc(C2COc3c(C)c(C)c(Br)c(C)c32)nc1 (centres undefined),105 to 106
4,N#Cc1ccc(-c2ccc(Br)o2)nc1,196
5,Cc1nnc2n1-c1ccc([N+](=O)[O-])cc1C(c1ccccc1)=NC2,233 to 234
6,CC(C)C1=C(Cl)C(=O)c2ccccc2C1=O,57 to 59
7,[N-]=[N+]=Nc1nc2c(N)ncnc2n1C1CC(O)C(CO)O1 (centres undefined),177 to 179
8,Cc1c(C(=O)N2C[C@@H](C)N[C@@H](C)C2)c2ccccc2n2cnc(C(=O)OC(C)(C)C)c12,228 to 232
9,O=C(O)CCSCCCCCCCCCCCCF,59
10,CCc1cc(C(=O)O)ccc1C(N)C(=O)O (centres undefined),189 to 193
11,CCC(=O)Nc1ccc2[nH]cc(C3CCN(C)CC3)c2n1,98.9 to 101
12,Cc1ccccc1-n1c(Cn2cnc3c(N)ncnc32)nc2cccc(Cl)c2c1=O,262 to 266
13,Cc1onc(-c2cccc(C(F)(F)F)c2)c1CCC(=O)O,63 to 64
14,O=C(C[C@H]1CCCO1)N[C@H]1CC[C@H](CCN2CCN(c3nccc4c3CCO4)CC2)CC1,183
15,CC(C)Oc1cc(/C=C/C(=O)O)n(Cc2ccc(Cl)cc2Cl)n1,170 to 171
16,C=CCn1c(NCC)nc(N2CCc3ccccc3CC2)c(C#N)c1=O,172 to 177
17,CCOC(=O)C(=O)Nc1ccc2nonc2c1NC(=O)C(=O)OCC,175
18,COc1ccc(C(C)(C)CC(O)(C(=O)O)C(F)(F)F)cc1Br (centres undefined),94 to 96
19,NC(=O)NC1CCCc2sccc21 (centres undefined),203 to 207
20,Nc1nc2c(ncn2[C@@H]2CO[C@H](CO)[C@@H](O)C2)c(=O)[nH]1,> 300

row,SMILES,melting point [°C]
1,CCCCC(CC)C(=O)NCCCCn1cnc2c(N)nc3ccccc3c21 (centres undefined),163 to 164
2,O=c1c2cc(Cl)c(Cl)cc2nc2n1CS(=O)(=O)N2,> 300
3,Clc1ccc(C#CCBr)cc1,41 to 43
4,CC(C)C(=O)N[C@@H](CS)C(=O)NCCSC(=O)C(C)(C)C,120 to 122
5,CCON=C(CC)C1=C(O)CC(c2ccc3c(c2)OCC(=O)N3)CC1=O (centres undefined),160 to 162
6,CCOc1ccc(C2SC(=N)NC2=N)cc1OCC (centres undefined),185 to 190
7,CC(C)C(C)(C)C(=O)C(Cc1ccc(Cl)cc1)n1cncn1 (centres undefined),91 to 94
8,COc1cc(OC)c(C(C)=O)c(O)c1CCC(C)C,100
9,CCOC(=O)c1cc(-c2csc(-c3cccnc3)n2)[nH]n1,105 to 107
10,Cc1c(OCC(F)(F)F)ccnc1CS(=O)c1nc2cc(-n3ccnc3)c(F)cc2[nH]1 (centres undefined),234 to 235
11,O=C(O)c1cc(CO[N+](=O)[O-])cc(CO[N+](=O)[O-])c1,39 to 41
12,CCOc1c(C(O)CCc2ccn(C)c2)c(OCCN2CCCCC2)c(OC)c2occc12 (centres undefined),88
13,CN1C(C)(C)CC(OC(=O)CCC(C)(c2ccc(O)c(C(C)(C)C)c2)c2ccc(O)c(C(C)(C)C)c2)CC1(C)C,203
14,CCc1nc(N)nc(N)c1N1CCN(c2ccc(C(=O)O)cc2)CC1,> 300
15,Cc1nc[nH]c1CSCCNc1cc(=O)cc[nH]1,208 to 210
16,NC(=O)c1cc2c(OCCCN3CCN(c4cc(N5CCCC5)nc(N5CCCC5)n4)CC3)cccc2[nH]1,151 to 152
17,N#CCn1nc2n(c1=O)-c1ccc(Cl)nc1C(c1ccccc1Cl)=NC2,198 to 200
18,O=C(NC1(C2CC2)CC1)c1c(NC(=O)c2cc(Cl)nn2-c2ncccc2Cl)c(Cl)cc2cn[nH]c12,173 to 175
19,O=C(O)c1cnn2c(C(F)F)cc(-c3ccc(Cl)cc3)nc12,232
20,CNC(=O)C1CC(=O)N(Cc2ccccc2)C1 (centres undefined),82.5 to 83

# Next, values leading:
row,melting point [°C],SMILES
1,107 to 108,COc1ccc(OCCCN2CCC(C(O)(c3ccc(F)cc3)c3ccc(F)cc3)CC2)cc1
2,176,CN(C)c1cccc(C(=C2CN(C(c3ccccc3)c3ccccc3)C2)S(C)(=O)=O)c1
3,260,O=C(Nc1ccc2ccc(Cl)nc2n1)c1ccc2ccccc2n1
4,150 to 151,O=c1c2c(CCCCCCc3ccccc3)n[nH]c2c2cccnc2n1-c1ccccc1
5,157 to 159,Cc1oc(-c2ccc(SC(F)(F)F)cc2)nc1CCOc1ccc(CN(O)C(N)=O)cc1
6,166 to 168,CCOC(=O)C=C1CCC(n2nc(-c3c(-c4ccccc4)nn4ccccc34)ccc2=O)CC1 (centres undefined)
7,281 to 283,N=C(NO)c1ccc(-c2ccc(-c3nc4cc(C(=N)NO)ccc4[nH]3)c(F)c2)cc1
8,226 to 228,COc1ccc(-c2cnn(-c3ccc(N4C[C@H](CNC(C)=O)OC4=O)cc3F)c2)cc1
9,165 to 167,CCOC(=O)C=Cc1c(C)nc(SCc2ccc(OC)cc2)n1C
10,147 to 149,CCOc1cc2cc(CO)cc(-c3ccnc(NN)c3)c2cc1OCC
11,139 to 141,Cn1nnc(CN2CCC[C@@H](OCc3cc(C(F)(F)F)cc(C(F)(F)F)c3)[C@H]2c2ccccc2)n1 (relative stereo)
12,146 to 147,COC(=O)Cc1cccc(OC)c1OCCCc1cn(-c2ccc(C(=O)O)nn2)nc1C(C)C
13,138 to 139,COc1cccc(Cn2cnc3c(-c4ccco4)ncnc32)c1
14,141 to 144,CN(Cc1ccc(C(=O)O)cc1)c1ccc2c(c1)C(C)(C)CCC2(C)C
15,88 to 89,Cc1c(C)c2c(c(C)c1OCc1ccccn1)C(c1ccc(C(C)C)cc1)C(C)(C)O2 (centres undefined)
16,176,Cn1ncnc1COc1nn2c(-c3ccccc3F)nncc2c1-c1cccc(F)c1
17,243 to 248,N#Cc1nc(-c2ccc(=O)[nH]c2)c(-c2ccccc2)nc1N
18,304 to 305,COc1ccc2c(c1)c(-c1cc3c(C#N)ccnc3[nH]1)cn2C
19,181 to 183,COc1cn(-c2ccc(OCc3ccccc3)cc2F)nc(-c2ccnn2-c2ccccc2)c1=O
20,> 300,O=C(O)c1ccc(-c2nnc3n2-c2cccnc2Nc2ccccc2-3)cc1

row,melting point [°C],SMILES
1,219,Cc1ccncc1-c1nc(-c2ccc(S(N)(=O)=O)cc2)cs1
2,205 to 208,O=S(=O)(Nc1cccc(Br)n1)c1cc(S(=O)(=O)Nc2cccc(Br)n2)c2ccccc2c1
3,145 to 146,COc1cccc(NC(=O)c2ccc(F)c([N+](=O)[O-])c2)c1
4,204 to 206,O=S(=O)(Nc1ccc2cnccc2c1)c1ccccc1
5,270 to 272,CC(=C1SC(=O)NC1=O)c1ccc(OCCOc2c(-c3ccc(F)c(F)c3)n(C)c3cc(F)ccc3c2=O)cc1
6,167,COC1CSC2=C(SC1)C(OC(=O)Oc1ccccc1)N(c1ccc(Cl)cn1)C2=O (centres undefined)
7,45,CO[C@@H]1C=C2C=C3C(=C(C)C(=O)N3Cc3ccccc3)C[C@]2(C)[C@@H](C)[C@H]1O
8,190 to 191,CC(=O)OC(C)OC1=C(C(=O)Nc2cccc(C)n2)N(C)S(=O)(=O)c2ccccc21 (centres undefined)
9,95 to 97,COCCOc1ccc(OCC(O)CNCCOc2ccc(OC)cc2)c(C#N)c1 (centres undefined)
10,237 to 240,O=c1c2c([nH]n1-c1ccc(Cl)cc1)-c1cc(Cl)ccc1SC2
11,210 to 213,COc1cc(-c2ccc(O)c(C3(C)CCCCC3)c2)cc(CC2SC(N3CCOCC3)=NC2=O)c1OC (centres undefined)
12,125,Clc1cccc(-c2cc(Cl)nc3ccc(Br)cc23)c1
13,162 to 164,CC1(CC(=O)O)OCCc2nc(-c3ccc(Cl)cc3)sc21 (centres undefined)
14,155 to 158,COc1cc(N)cc(C)c1OCCCN1CCN(c2cccc3sccc23)CC1
15,122 to 123,COc1ccc(-c2sc3ccccc3c2Oc2ccc(OCc3ccccc3)cc2)cc1F
16,166 to 169,OC(=S)CCCCCCn1c(-c2ccccc2)nc(-c2ccccc2)c1-c1ccccc1
17,130 to 132,COC(=O)c1ccc(Nc2cccc3ccccc23)cc1
18,124 to 126,Cc1ccc([C@H](CC(=O)O)NC(=O)Nc2c(OCc3ccccc3)cc(C)n(Cc3ccccc3)c2=O)cc1
19,180,COc1ccccc1C(=O)c1cccc(C#N)c1
